Assay results as given in US9402875B2, “Amidated dopamine neuron stimulating peptide restoration of mitochondrial activity” (University of Kentucky Research Foundation, priority 2006, dated 2016).
Ends that are not written are not given here.

What was measured:
[1] = tested on: E14 SD rat embryo primary dopaminergic neurons from the ventral mesencephalon; format: cell-based
Method: DNSP-11 treatment of Mesencephalic Cells: Timed pregnant SD rats (Harlan) were used to obtain the ventral mesencephalon from E14 fetuses. The dissected tissue was collected in cold Neurobasal™ medium and rinsed twice with cold Dulbecco's PBS. The cells were chemically (TrypLE®) and mechanically dissociated to yield a single cell suspension. The solution was centrifuged at 169 g for 6 minutes and the pellet was resuspended in Dulbecco's Modified Eagle Medium (DMEM). Cells were plated in a 25 μL micro-island at a density of 4000 cells/μL on poly-D-lysine coated 24-well plates (Sigma). Following adherence, cells were supplemented with warm NEUROBASAL™ media containing 2 mM glutamine, 1×N2, and 100 units of penicillin/streptomycin. Neurotrophic compounds were added at each media addition, including initial plating and DIV 2. A dose response of the peptides (0.03 ng to 10 ng/mL) was added to a 24-well plate following media supplementation.
The neurotrophic effects of DNSP-11 were studied by comparing its effects to the well-known effects of GDNF on the maintenance of primary mesencephalic cell cultures from E14 SD rat embryos. E14 SD rat embryo primary dopaminergic neurons from the ventral mesencephalon were grown for 5 days in vitro and neurotrophic molecules were added at each media change, including initial plating and day 2. […] These effects were similar to those observed for GDNF in these cells, including an increase in the size of TH+ neurons, which was not observed for DNSP-11 (Table 4).
In Table 1, cell survival and morphological parameters were quantified for control (citrate buffer) and experimental (0.1 ng/ml GDNF or 0.1 ng/ml DNSP-11) conditions. For morphology, five fields per well (minimum of 15 cells/field; 3-4 independent experiments) were photographed at 20× magnification and quantified using a Bioquant Image Analysis System. […] Soma size was not increased by the addition of DNSP-11. A one-way ANOVA was used to test for significance among groups, followed by a Newman-Keuls post hoc analysis. Significance between control and experimental conditions was determined at *p<0.05 and **p<0.01.

MN9D dopaminergic cells = experiment: Caspase-3 activity assay, protection against 6-OHDA toxicity; format: cell-based; settings: 1 ng/mL for 1 hour before 100 μM 6-OHDA for 15 min; at 3 h
Method: MN9D Cell Cultures: The MN9D cell line has been described by Choi (1991) Brain Res. 552:67-76 and was a gift from Michael Zigmond. Cells were cultured in DMEM supplemented with 10% Fetal Bovine Serum (FBS, Hyclone), 50 U/mL penicillin and streptomycin. For experiments, the cells were plated on 24-well poly-D-lysine in DMEM with 1% (v/v) penicillin-streptomycin. The cells were grown at 37° C. in 5% CO2.
Caspase-3 Activity Assay in MN9D Cells: MN9D cells were plated to 100,000 cells/well. Cell cultures were exposed to DNSP-11 (1 ng/mL) or buffer for 1 hour prior to 15 min 100 μM 6-OHDA exposure. Caspase-3 activity was monitored after 3 hours by fluorescence (excitation/emission 496/520 nm) using the Enz Chek Caspase-3 kit. Protein levels of lysed cells were measured by BCA assay (BioRad) and normalized for every experiment. Data expressed as % control and repeated a minimum of 3 times.
To evaluate DNSP-11's neuroprotective properties, DNSP-11 was compared to GDNF in its protection against 6-OHDA-induced toxicity in the dopaminergic cell line, MN9D. MN9D dopaminergic cells were incubated for 1 hour with either citrate buffer (control), 1 ng/mL of DNSP-11 or GDNF prior to 100 μM 6-OHDA exposure for 15 min. Data are +SD, one-way ANOVA with Tukey's post hoc analysis, *p<0.05, **p<0.01, ***p<0.001 vs. control; #p<0.05, ##p<0.01, ###p<0.001 vs. 6-OHDA.

GFRα1 = molecular target: T1, GFRα1 (Homo sapiens, UniProt P56159); experiment: Pull-down assay and ELISA with GFRα1; format: binding; settings: pull-down with biotinylated DNSP-11; supported by ELISA
T1 sequence (P56159 25-429): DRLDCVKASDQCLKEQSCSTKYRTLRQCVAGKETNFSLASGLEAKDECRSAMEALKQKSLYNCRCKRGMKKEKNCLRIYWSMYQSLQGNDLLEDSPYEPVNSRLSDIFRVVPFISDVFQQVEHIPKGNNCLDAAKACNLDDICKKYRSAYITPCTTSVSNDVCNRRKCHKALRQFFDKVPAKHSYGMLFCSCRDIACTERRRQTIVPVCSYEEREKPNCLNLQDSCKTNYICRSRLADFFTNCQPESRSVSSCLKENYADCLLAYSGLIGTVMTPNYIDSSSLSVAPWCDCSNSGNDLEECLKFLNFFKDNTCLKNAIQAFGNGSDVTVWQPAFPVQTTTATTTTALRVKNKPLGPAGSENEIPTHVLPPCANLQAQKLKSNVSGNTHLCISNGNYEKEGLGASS
Method: Specifically, a solution of 25 μL GFRα1 (1 mg/mL) was incubated with 50 μL of Dynabeads® (Invitrogen) in wash and bind buffer (0.1 M sodium phosphate, pH 8.2, 0.01% ^Tween® 20) for 10 minutes at room temperature. The beads were then washed three times in 100 μl, of wash and bind buffer. 2 μg of GDNF was added and incubated for 1 hour at 4° C. 25 μL GFRα1 (1 mg/mL) was incubated with 40 μg of biotinylated DNSP-11 (bDNSP-11) for 1 hour at 4° C. They were then added to 50 μL of hydrophilic streptavidin magnetic beads (New England Biolabs) and incubated for an hour at 4° C.
Moreover, the absence of interaction between GFRα1 with DNSP-11 is supported by ELISA.

“PPEAPAEDRSL-NH2 [DNSP-11, PPEAPAEDRSL-amide]” was tested, and the Cell survival ([1]; 0.1 ng/ml, 5 days in vitro, control 100) was “*161 ± 17”, the “Average branches per neuron” value ([1]; 0.1 ng/ml, controls 3.8 ± 0.2 (GDNF), 3.1 ± 0.2 (DNSP-11)) was “**4.4 ± 0.3” and the “Soma size (um^2)” value ([1]; 0.1 ng/ml, controls 171 ± 4 (GDNF), 168 ± 3 (DNSP-11)) was 165 ± 5 um^2. The “Combined neurite length (um)” value ([1]; 0.1 ng/ml, controls 242 ± 12 (GDNF), 222 ± 11 (DNSP-11)) was “**306 ± 23 um”, the “TH+ neuron counts” value ([1]; 0.03, 0.1, 1.0 and 10 ng/ml) was “significantly increase” and the caspase-3 activity (MN9D dopaminergic cells) was “significant reduction”. The “interaction with GFRα1” value (GFRα1) was “do not interact”.
